The values below are quoted from earlier work in patent US20050124791A1, “Ion channel” (priority 2001, published 2005).

The data set has as its system adenylate cyclase from the outer segment of the bovine retina. As to conditions: membrane-associated and purified soluble enzyme.
With `Nc1nc2c(ncn2[C@@H]2O[C@H](COP(=O)(O)OP(=O)(O)OP(O)(O)=S)[C@@H](O)[C@H]2O)c(=O)[nH]1` [GTPyS], the “stimulation of the enzyme” value is listed as “Neither the membrane-associated nor the purified soluble enzyme can be stimulated”.
Regarding GMPPhT, the “stimulation of the enzyme” value was “Neither the membrane-associated nor the purified soluble enzyme can be stimulated”.
For the molecule `Nc1nc2c(ncn2[C@@H]2O[C@H](COP(=O)(O)OP(=O)(O)OP(=O)(O)O)[C@@H](O)[C@H]2O)c(=O)[nH]1` [GTP], the “stimulation of the enzyme” value is listed as “Neither the membrane-associated nor the purified soluble enzyme can be stimulated”.
